Ki and inhibition data for 60 compounds are collected here from US9499502B2, “5-substituted iminothiazines and their mono- and dioxides as BACE inhibitors, compositions, and their use” (Merck Sharp & Dohme Corp., priority 2011, dated 2016).

Read-outs that look alike come from different tables or passages of the source.

Assay [1] has as its target purified human autoBACE-2 (Homo sapiens (Human), UniProt Q9Y5Z0). As to the kind of experiment: BACE-2 Assay (BACE-HTRF assay). To be noted: for Ki: Ki calculated from IC50 using the Cheng-Prusoff equation, read-out: BACE2 Ki. It is filed as biochemical. The method, then:
Inhibitor IC50s at purified human autoBACE-2 are determined in a time-resolved endpoint proteolysis assay that measures hydrolysis of the QSY7-[…]-Eu-amide FRET peptide substrate (BACE-HTRF assay). […] DMSO is present at 5% final concentration in the assay. Following laser excitation of sample wells at 320 nm, the fluorescence signal at 620 nm is collected for 400 ms following a 50 μs delay on a RUBYstar HTRF plate reader (BMG Labtechnologies). Raw RFU data is normalized to maximum (1.0 nM BACE/DMSO) and minimum (no enzyme/DMSO) RFU values. […] The Ki values are calculated from the IC50 using the Cheng-Prusoff equation.

Assay [2] has as its target soluble human BACE1 catalytic domain (Homo sapiens (Human), UniProt P56817). Kind of assay: BACE1 HTRF FRET Assay. To be noted: for inhibition at 10 µM: read-out: BACE1 inhibition, % Inh. at 10 μM, at 10 μM.
[3] abbreviates: read-out: BACE1 Ki, Ki calculated from IC50 using the Cheng-Prusoff equation.

Sequence of purified human autoBACE-2 (Q9Y5Z0 63-473): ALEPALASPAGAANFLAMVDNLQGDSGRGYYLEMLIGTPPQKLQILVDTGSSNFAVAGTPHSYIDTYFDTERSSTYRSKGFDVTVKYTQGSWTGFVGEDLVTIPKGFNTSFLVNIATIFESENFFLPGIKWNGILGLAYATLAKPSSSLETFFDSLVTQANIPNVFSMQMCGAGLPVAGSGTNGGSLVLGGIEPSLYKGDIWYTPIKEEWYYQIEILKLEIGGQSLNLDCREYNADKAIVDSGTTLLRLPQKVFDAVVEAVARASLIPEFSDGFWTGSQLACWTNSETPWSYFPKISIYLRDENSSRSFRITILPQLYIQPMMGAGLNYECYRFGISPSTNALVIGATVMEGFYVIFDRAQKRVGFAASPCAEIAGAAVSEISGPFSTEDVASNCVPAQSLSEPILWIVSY
Sequence of soluble human BACE1 catalytic domain (P56817 75-416): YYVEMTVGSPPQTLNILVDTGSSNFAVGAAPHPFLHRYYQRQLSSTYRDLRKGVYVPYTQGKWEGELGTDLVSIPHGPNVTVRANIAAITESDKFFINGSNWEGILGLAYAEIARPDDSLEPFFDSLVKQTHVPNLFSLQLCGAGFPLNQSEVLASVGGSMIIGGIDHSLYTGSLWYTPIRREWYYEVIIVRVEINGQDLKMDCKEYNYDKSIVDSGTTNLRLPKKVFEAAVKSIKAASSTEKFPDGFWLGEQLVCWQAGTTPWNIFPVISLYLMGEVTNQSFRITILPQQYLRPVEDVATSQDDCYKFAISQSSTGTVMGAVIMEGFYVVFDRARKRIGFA

Broadly, the Ki is a measure of affinity in units of concentration, obtained from inhibition or displacement. Take `CC1(C)C(=N)N[C@](C)(c2sc(-c3cccc(-n4nccn4)c3)cc2Cl)CS1(=O)=O` [Example 27u]: the Ki in assay [1] is ≤ 10 nM; in assay [2] (read-out: BACE1 Ki), 49.2 nM.
Take `CC1(C)C(=N)N[C@](C)(c2cc(NC(=O)C(F)F)cc(F)c2F)CS1(=O)=O` [Example 9bd]: the inhibitory constant (Ki) was 40 nM in assay [1] and 233 nM in assay [2] (setting [3]).
The like results for `CC1(C)C(=N)N[C@](C)(c2sc(-c3nnc(-c4ccc(Cl)cc4)o3)cc2Cl)CS1(=O)=O` [Example 27bc] were, in that order, ≤ 20 nM and 35.9 nM.
For orientation: inhibition means the percentage by which the read-out fell short of the control. Regarding `C[C@@]1(c2cccc(F)c2)C(=N)N[C@](C)(c2sc(Br)cc2F)CS1(=O)=O` [Entry 88], the inhibition at 10 µM in assay [1] (read-out: inhibition of BACE2 at 10 μM) was 29 to 47%; in assay [2] it was 34%.
As for `CC1(C)C(=N)N[C@](C)(c2cc(NC(=O)c3cnc(OCC4CC4)cn3)ccc2F)CS1(=O)=O` [Example 9p], in assay [1], the inhibition constant Ki is 16 nM.
On the same count and under the same terms, the value for `CC1(C)C(=N)N[C@](C)(c2nc(NC(=O)c3cnc(C(F)F)cn3)ccc2F)CS1(=O)=O` [Example 9cj] was 21 nM; that for `COc1cccc2cc(-c3ccc(F)c([C@]4(C)CS(=O)(=O)C(C)(C)C(=N)N4)c3)[nH]c12` [compound 11] was < 200 nM.
On to `CC1(C)C(=N)N[C@](C)(c2sc(-c3cccc(-c4nnco4)c3)cc2Cl)CS1(=O)=O` [Example 27ae], for which the Ki in assay [1] is 21 nM.
`CC[C@]1(C)C(=N)N[C@](C)(c2cc(NC(=O)c3cnc(OC)cn3)ccc2F)CS1(=O)=O` [Example 9cn-b]: the Ki in assay [1] was 11 to 100 nM.
Same read-out and setting: the value for `C[C@@]1(c2cc(NC(=O)c3ccc(Cl)cn3)ccc2F)CS(=O)(=O)[C@@](C)(c2cccc(F)c2)C(=N)N1` [Example 9db-b] was 11 to 100 nM.
As for `C[C@@]1(c2cc(N)ccc2F)CS(=O)(=O)[C@@](C)(c2cccc(C(F)(F)F)c2)C(=N)N1` [Entry 68], the Ki in assay [2] (read-out: BACE1 inhibition, Ki) came out at 1400 nM.
As for `C[C@@]1(c2cc(NC(=O)c3ccc(F)cn3)ccc2F)CS(=O)(=O)[C@@](C)(c2cccc(F)c2)C(=N)N1` [Example 9da-a], the Ki in assay [2] (setting [3]) was 3.6 nM.
`C[C@@]1(c2ccccn2)C(=N)N[C@](C)(c2sc(-c3cncc(C#N)c3)cc2F)CS1(=O)=O` [Example 27bq-b]: the inhibitory constant (Ki) in assay [2] (read-out: BACE1 Ki) worked out at 2500 nM.
In the case of `COCC(=O)Nc1ccc(F)c([C@]2(C)CS(=O)(=O)[C@@](C)(c3cccc(C(F)(F)F)c3)C(=N)N2)c1` [Example 9cp-a], in assay [2] (setting [3]), the Ki was 18 nM.
As for `CC1(C)C(=N)N[C@](C)(c2sc(-c3ccc(F)c(C#N)c3)cc2Cl)CS1(=O)=O` [Example 27j], in assay [2] (read-out: BACE1 Ki), the Ki is 5150 nM.
Regarding `C=CC[C@]1(C)C(=N)N[C@](C)(c2cc(N)ccc2F)CS1(=O)=O` [Entry 44], the inhibition at 10 µM in assay [2] was determined as 38%.
In the case of `COCCn1cc(-c2cc(Cl)c([C@]3(C)CS(=O)(=O)C(C)(C)C(=N)N3)s2)cn1` [Example 27r], the Ki in assay [2] (read-out: BACE1 Ki) was 448 nM.
`COc1ccc(C(=O)Nc2ccc(F)c([C@]3(C)CS(=O)(=O)[C@](C)(c4cccc(F)c4)C(=N)N3)c2)nc1` [Example 9dc-b]: the Ki in assay [2] (setting [3]) was 216 nM.
Consider `CC[C@]1(C)C(=N)N[C@](C)(c2cc(NC(=O)c3ccc(OC)cn3)ccc2F)CS1(=O)=O` [Example 9cm-b], for which the inhibitory constant (Ki) in assay [1] is 11 to 100 nM.
With `C[C@@]1(c2sc(-c3cncc(C#N)c3)cc2F)CS(=O)(=O)[C@@](C)(c2ccccn2)C(=N)N1` [Example 27bq-a], the Ki in assay [2] (read-out: BACE1 Ki) was determined as 268 nM.
Regarding `C[C@@]1(c2sc(Br)cc2F)CS(=O)(=O)[C@@](C)(c2ccccn2)C(=N)N1` [Entry 85], the Ki in assay [2] (read-out: BACE1 inhibition, Ki) was 1500 nM.
For the compound `COc1cccc(-c2cc(F)c([C@]3(C)CS(=O)(=O)[C@](C)(CC(F)(F)F)C(=N)N3)s2)c1` [Example 27bl-b], the Ki in assay [2] (read-out: BACE1 Ki) came to 7310 nM.
For the compound `C[C@@]1(c2cc(F)ccc2F)CS(=O)(=O)[C@@](C)(c2cccc(OCc3ccccc3)c2)C(=N)N1` [Example 34d-a], the Ki in assay [2] (read-out: BACE1 inhibition, Ki) turned out to be 2900 nM.
Turning to `CC1(C)C(=N)N[C@](C)(c2sc(-c3cncc(-c4nnco4)c3)cc2F)CS1(=O)=O` [Example 27az], the Ki in assay [2] (read-out: BACE1 Ki) came to 14 nM.
Same read-out and setting: next, `CC1(C)C(=N)N[C@](C)(c2cc(-c3cccc(-c4ccno4)c3)cs2)CS1(=O)=O` [Example 27aj]: 113 nM.
With `Cc1noc(-c2cccc(-c3cc(F)c([C@]4(C)CS(=O)(=O)C(C)(C)C(=N)N4)s3)c2)n1` [Example 27aw], the inhibition constant Ki in assay [2] (read-out: BACE1 Ki) was found to be 125 nM.
For the compound `C[C@@]1(c2cc(N)ccc2F)CS(=O)(=O)[C@](C)(CC2CC2)C(=N)N1` [Entry 48], the inhibition at 10 µM in assay [2] came out at 37%.
`COc1ccc(C(=O)Nc2cc(F)c(F)c([C@]3(C)CS(=O)(=O)C(C)(C)C(=N)N3)c2)nc1` [Example 9m]: the inhibitory constant (Ki) in assay [2] (setting [3]) was 7.6 nM.
With `CC1(C)C(=N)N[C@](C)(c2sc(-c3cccc(-c4ccno4)c3)cc2Cl)CS1(=O)=O` [Example 27d], the inhibition constant Ki in assay [2] (setting [3]) is 64.3 nM.
Still for that read-out and setting: next, `C[C@]1(CC2CCOCC2)C(=N)N[C@](C)(c2cc(NC(=O)c3ccc(F)cn3)ccc2F)CS1(=O)=O` [Example 9cr-a]: 2.1 nM; `CC[C@]1(C)C(=N)N[C@](C)(c2cc(NC(=O)c3ccc(F)cn3)ccc2F)CS1(=O)=O` [Example 9cl-b]: 22.5 nM.
Take `CC1(C)C(=N)N[C@](C)(c2c(F)c(F)cc([N+](=O)[O-])c2F)CS1(=O)=O` [Entry 15]: in assay [2], the inhibition at 10 µM was found to be 45%.
Still for that read-out and setting: the value for `C[C@@]1(c2cccc(O)c2)C(=N)N[C@](C)(c2cc(F)ccc2F)CS1(=O)=O` [Example 34c-b] was 48%.
In the case of `C=CC[C@@]1(C)C(=N)N[C@](C)(c2cc(NC(=O)c3cnc(OC)cn3)ccc2F)CS1(=O)=O` [Example 9dm-a], the Ki in assay [2] (setting [3]) is 4 nM.
For the compound `CC1(C)C(=N)N[C@](C)(c2cc(NC(=O)c3ccc(F)cn3)ccc2F)CS1(=O)=O` [Example 1], the Ki in assay [2] (BACE1 Ki (nM), Ki calculated from IC50 using the Cheng-Prusoff equation) was < 5 nM; in assay [2] (setting [3]), 1.2 nM.
Regarding `CC1(C)C(=N)N[C@](C)(c2sc(C(=O)NCc3ccc(Cl)cc3)cc2Cl)CS1(=O)=O` [Example 22k], the Ki in assay [2] (setting [3]) was 863 nM.
With `CC1(C)C(=N)N[C@](C)(c2c(F)ccc(N)c2F)CS1(=O)=O` [Entry 13], the Ki in assay [2] (read-out: BACE1 inhibition, Ki) was determined as 3600 nM.
With `C[C@@]1(c2cccc(F)c2)C(=N)N[C@](C)(c2sc(-c3cccc(C#N)c3)cc2F)CS1(=O)=O` [Example 27br-b], in assay [2] (read-out: BACE1 Ki), the inhibitory constant (Ki) is 4930 nM.
As to `CC1(C)C(=N)N[C@](C)(c2sc(C(=O)NCC3CCC3)cc2Cl)CS1(=O)=O` [Example 22n], in assay [2] (setting [3]), the Ki is 917 nM.
On the same count and under the same terms, next, `CC1(C)C(=N)N[C@](C)(c2sc(C(=O)NCc3ccc(C#N)cc3)cc2Cl)CS1(=O)=O` [Example 22m]: 1030 nM; `CC1(C)C(=N)N[C@](C)(c2nc(NC(=O)c3ccc(F)cn3)ccc2F)CS1(=O)=O` [Example 9cd]: 48 nM.
As to `CC1(C)C(=N)N[C@](C)(c2cc(-c3cncc(-c4cnco4)c3)cs2)CS1(=O)=O` [Example 27al], the Ki in assay [2] (read-out: BACE1 Ki) was determined as 93.8 nM.
On to `COCC1(COC)C(=N)N[C@](C)(c2sc(Br)cc2Cl)CS1(=O)=O` [Entry 89], for which, in assay [2] (read-out: BACE1 inhibition, Ki), the inhibition constant Ki was 1900 nM.
On to `C[C@@]1(c2sc(Br)cc2F)CS(=O)(=O)[C@@](C)(c2cccc(F)c2)C(=N)N1` [Entry 87], for which the inhibition constant Ki in assay [2] (read-out: BACE1 inhibition, Ki) is 600 nM.
`C[C@@]1(c2cc(NC(=O)c3ccc(F)cn3)ccc2F)CS(=O)(=O)[C@@](C)(c2cccc(C(F)(F)F)c2)C(=N)N1` [Example 9co-a]: the Ki in assay [2] (setting [3]) is 5.8 nM.
In the case of `COc1cnc(C(=O)Nc2ccc(F)c([C@]3(C)CS(=O)(=O)[C@](C)(c4cc(C(F)(F)F)ccn4)C(=N)N3)c2)cn1` [Example 9ee-b], the inhibition constant Ki in assay [1] is 11 to 100 nM.
As for `CC1(C)C(=N)N[C@](C)(c2cc(NC(=O)CC(F)(F)F)ccc2F)CS1(=O)=O` [Example 9ag], the Ki in assay [2] (setting [3]) was 663 nM.
With `CC1(C)C(=N)N[C@](C)(c2c(F)ccc(F)c2F)CS1(=O)=O` [Entry 14], the Ki in assay [2] (read-out: BACE1 inhibition, Ki) was found to be 2400 nM.
Consider `CC1(C)C(=N)N[C@](C)(c2sc(-c3nnc(-c4ccccc4)o3)cc2Cl)CS1(=O)=O` [Example 27ba], for which the inhibition constant Ki in assay [2] (setting [3]) is 258 nM.
On the same count and under the same terms, next, `COc1ccc(-c2nnc(-c3cc(Cl)c([C@]4(C)CS(=O)(=O)C(C)(C)C(=N)N4)s3)o2)cc1` [Example 27bd]: 76.1 nM.
On the same count and under the same terms, next, `C[C@]1(CC2CC2)C(=N)N[C@](C)(c2cc(NC(=O)c3ccc(C(F)(F)F)cn3)ccc2F)CS1(=O)=O` [Example 9dl-a]: 4.4 nM; `CC1(C)C(=N)N[C@](C)(c2cc(NC(=O)c3ccc(Cl)cn3)cc(Cl)c2F)CS1(=O)=O` [Example 9t]: 3.3 nM; `C[C@]1(CC2CCOCC2)C(=N)N[C@](C)(c2cc(NC(=O)c3ccc(Cl)cn3)ccc2F)CS1(=O)=O` [Example 9cs-a]: 1.6 nM.
Take `CC1(C)C(=N)N[C@](C)(c2cc(NC(=O)[C@H]3CCCO3)ccc2F)CS1(=O)=O` [Example 9al]: the Ki in assay [2] (setting [3]) is 172 nM.
Turning to `CC1(C)C(=N)N[C@](C)(c2sc(-c3cccc(OC(F)(F)F)c3)cc2Cl)CS1(=O)=O` [Example 27h], the inhibition constant Ki in assay [2] (read-out: BACE1 Ki) came out at 70.9 nM.
As to `CC1(C)C(=N)N[C@](C)(c2sc(-c3ccc4ncnn4c3)cc2Cl)CS1(=O)=O` [Example 27q], the Ki in assay [2] (read-out: BACE1 Ki) came to 297 nM.
For `Cc1noc(C(=O)Nc2ccc(F)c([C@]3(C)CS(=O)(=O)C(C)(C)C(=N)N3)c2)n1` [Example 9h], in assay [2] (setting [3]), the inhibition constant Ki was 2.7 nM.
`Cc1nc2cc(CC3(C)C(=N)N[C@](C)(c4cc(F)ccc4F)CS3(=O)=O)ccc2o1` (single isomer, unassigned) [Example 32a-b]: in assay [2] (BACE1 Ki (nM)), the inhibition constant Ki worked out at 4640 nM.
Consider `CC1(C(=O)Nc2ccc(F)c([C@]3(C)CS(=O)(=O)C(C)(C)C(=N)N3)c2)CC1` [Example 9aj], for which the Ki in assay [2] (setting [3]) is 1490 nM.
Regarding `CC1(C)C(=N)N[C@](C)(c2nc(N)ccc2F)CS1(=O)=O` [Example 2F-3], in assay [2] (read-out: BACE1 inhibition, Ki), the inhibition constant (Ki) is 6200 nM.
